Experimental data taken from article PMC8878452, “A Tale of Toxin Promiscuity: The Versatile Pharmacological Effects of Hcr 1b-2 Sea Anemone Peptide on Voltage-Gated Ion Channels” (Marine Drugs, 2022).
“Also recorded” adds a separate entry of the source. Bridges are numbered along the chain shown (N, C = ends). Where no end group is shown, it is not given here.

How the values were obtained:
hNav1.5 = test: TEVC, Nav1.5 in Xenopus oocytes; assay type: cell-based, human
Excerpt: (§1) For the expression of Kv channels (rKv1.1, rKv1.2, rKv1.3, rKv1.4, rK1.5, rKv1.6, hKv2.1, hKv3.1, rKv4.2, hKv7.1, hKv7.2/7.3, hKv7.4, KQT1 (from the roundworm Caenorhabditis elegans), hKv10.1 (hEAG1), hKv11.1 (hERG1), and Shaker, from Drosophila melanogaster), Nav channels (rNav1.1, rNav1.2, rNav1.3, rNav1.4, hNav1.5, mNav1.6, hNav1.7, hNav1.8, and BgNav (from the cockroach Blattella germanica), as well as the hβ1 and rβ1 subunits, and Cav channels (rCav3.1, hCav3.2, and rCav3.3) in Xenopus oocytes, the linearized plasmids were transcribed using the T7 or SP6 mMESSAGEmMACHINE transcription kit (Ambion, Austin, TX, USA). Mature female animals were purchased from Nasco (Fort Atkinson, WI, USA) and were housed in the Aquatic Facility (KU Leuven) in compliance with the regulations of the European Union (EU) concerning the welfare of laboratory animals as declared in Directive 2010/63/EU. The use of X. laevis oocytes was approved by the Animal Ethics Committee of the KU Leuven, with the license number P186/2019.
(§2) Stage V–VI oocytes were collected from anesthetized female X. laevis frog as previously described, with the frogs anesthetized by placement in a 0.1% tricaine solution (amino benzoic acid ethyl ester; Merck, Kenilworth, NJ, USA). Oocyte microinjection was performed using a microinjector (Drummond Scientifc®, Broomall, PA, USA), with a programmed cRNA injection volume of 4–50 nL, depending on channel subtype. The oocytes were incubated in ND96 solution (96 mM NaCl; 2 mM KCl; 1.8 mM CaCl2; 2 mM MgCl2, and 5 mM HEPES, pH 7.4), supplemented with 50 mg/L of gentamicin sulfate.
(§3) Electrophysiological measurements were performed at room temperature (18–22 °C) using the two-electrode voltage-clamp (TEVC) technique. Data were obtained using a GeneClamp 500 amplifier (Axon Instruments®, Burlingame, CA, USA) and Clampex9 software (Axon Instruments®, USA) was responsible for data acquisition and storage. Glass micropipettes were produced using glass capillaries (borosilicate WPI 1B120-6) and drawn in a WPI (World Precision Instruments®, Sarasota, FL, USA) manual stretcher. The bath and perfusion solutions were either the previously described ND96 (Nav and Kv channels) or calcium-free ND96 supplemented with 10 mM BaCl2 (Cav channels).
(§4) Whole-cell currents of oocytes were recorded 1 to 3 days after RNA injection. The current and voltage electrodes were filled with 3 M KCl, and their resistance was adjusted from 1.0 to 2.5 MΩ. Currents were sampled at 20 kHz (Nav channels) and 10 kHz (Kv and Cav channels) and filtered using a four-pole Bessel low-pass Bessel filter at 1 kHz for sodium and […] for potassium and calcium, except for the hERG ion channel in which the currents were filtered at 1 kHz. Leak subtraction was performed using a P/4 protocol. Kv1.x currents were evoked by 500 ms depolarizations to 0 mV, followed by a 500 ms pulse to −50 mV from a holding potential of −90 mV. Kv2.1, Kv3.1, Kv4.2, Kv7.x, and KQT1 currents were elicited by 700 ms pulses to +20 mV from a holding potential of −90 mV. Current traces of the hERG1 channel were elicited by applying a +40 mV prepulse for 2 s, followed by a step of −120 mV for 2 s. Current traces of hEAG1 were elicited by a 2 s depolarization to 0 mV from a holding potential of −90 mV. Sodium current traces were evoked by a 100 ms depolarization to 0 mV. For Cav channels, current traces were elicited by 700 ms depolarizations to −20 mV from a holding potential of −90 mV. The current–voltage relationships were determined by 50 ms step depolarizations between −90 and +65 mV using 5 or 10 mV increments. All electrophysiological data were analyzed following the procedures described by Peigneur et al., 2012 [20].
(§5) All values were expressed as means ± SEM. Differences in ionic currents between the control and toxin conditions were compared by a one-way ANOVA, followed by Dunnett’s multiple comparisons test. Differences were considered statistically significant when […].

hKv7.1 = test: TEVC, Kv7.1 in Xenopus oocytes; assay type: cell-based, human
Excerpt: as §1, §2, §3
as §4, with “Current traces of hEAG1 were elicited by a 2 s depolarization to 0 mV from a holding potential of −90 mV. Sodium current traces were evoked by a 100 ms depolarization to 0 mV. For Cav channels, current traces were elicited by 700 ms depolarizations to −20 mV from a holding potential of −90 mV.” left out
(§6) All values were expressed as means ± SEM. […]

rNav1.3 = test: TEVC, Nav1.3 in Xenopus oocytes; assay type: cell-based, rat
Excerpt: as §1, §2, §3
as §4, with “Current traces of hEAG1 were elicited by a 2 s depolarization to 0 mV from a holding potential of −90 mV. Sodium current traces were evoked by a 100 ms depolarization to 0 mV. For Cav channels, current traces were elicited by 700 ms depolarizations to −20 mV from a holding potential of −90 mV.” left out
as §6

[1] = tested on: T-type voltage-gated calcium channels; test: TEVC panel of three T-type Cav channels, voltage dependence; assay type: cell-based; settings: 1 µM vs control
Excerpt: as §1, with “P186/2019. […]” for “P186/2019.”
Whole-cell currents of oocytes were recorded 1 to 3 days after RNA injection. […] The current–voltage relationships were determined by 50 ms step depolarizations between −90 and +65 mV using 5 or 10 mV increments. All electrophysiological data were analyzed following the procedures described by Peigneur et al., 2012 [20].
as §6

rNav1.2 = test: TEVC, Nav1.2 in Xenopus oocytes; assay type: cell-based, rat
Excerpt: as §1, §2, §3, §4, §5

hNav1.8 = test: TEVC, Nav1.8 in Xenopus oocytes; assay type: cell-based, human
Excerpt: as §1, §2, §3, §4, §5

hCav3.2 = test: TEVC, Cav3.2 in Xenopus oocytes; assay type: cell-based, human
Excerpt: as §1, §2, §3
as §4, with “Current traces of hEAG1 were elicited by a 2 s depolarization to 0 mV from a holding potential of −90 mV. Sodium current traces were evoked by a 100 ms depolarization to 0 mV. For Cav channels, current traces were elicited by 700 ms depolarizations to −20 mV from a holding potential of −90 mV.” left out
as §6

tested animals = settings: cited from earlier work
Experimental: Recently, the Hcr 1b-2 sequence was determined, together with two other peptides, named Hcr1b-3 and Hcr1b-4, which share 97.6% and 78.0% of sequence identity, respectively (Figure 1).

rNav1.1 = test: TEVC, Nav1.1 in Xenopus oocytes; assay type: cell-based, rat
Excerpt: as §1, §2, §3
as §4, with “Current traces of hEAG1 were elicited by a 2 s depolarization to 0 mV from a holding potential of −90 mV. Sodium current traces were evoked by a 100 ms depolarization to 0 mV. For Cav channels, current traces were elicited by 700 ms depolarizations to −20 mV from a holding potential of −90 mV.” left out
as §6

KQT1 = test: TEVC, KQT1 in Xenopus oocytes; assay type: cell-based, Caenorhabditis elegans
Excerpt: as §1, §2, §3
as §4, with “Current traces of hEAG1 were elicited by a 2 s depolarization to 0 mV from a holding potential of −90 mV. Sodium current traces were evoked by a 100 ms depolarization to 0 mV. For Cav channels, current traces were elicited by 700 ms depolarizations to −20 mV from a holding potential of −90 mV.” left out
as §6

[2] = 1 µM, 100 ms depolarization to 0 mV, mean ± SEM, n ≥ 3
[3] = 1 µM, 700 ms pulse to +20 mV from −90 mV, mean ± SEM, n ≥ 3
[4] = 1 µM, TEVC, ND96 pH 7.4, 18–22 °C, n ≥ 3
[5] = 1 µM vs control (ND96 Ca2+ free)

GTPCKCHGYIGVYWFMLAGCPNGYGYNLSCPYFLGICCVKK (disulfide 4-37, 6-30, 20-38 (inferred)) [Hcr 1b-2]
effect on activation or inactivation, Nav1.5 (hNav1.5; 1 µM): no significant effect
Shift in Vhalf activation, Nav1.5 (hNav1.5; 1 µM vs control (ND96)): 3.8 mV
Shift in Vhalf inactivation, Nav1.5 (hNav1.5; 1 µM vs control (ND96)): −3.2 mV
reduction of peak amplitude (INa), Nav1.5 (hNav1.5; [2]): 41.6 ± 5.9%
Vhalf activation, Nav1.5 (hNav1.5; 1 µM, control (ND96) −38.5 ± 0.1, mean ± SEM, n ≥ 3): −34.7 ± 0.1 mV
Vhalf inactivation, Nav1.5 (hNav1.5; 1 µM, control (ND96) −66.0 ± 0.2, mean ± SEM, n ≥ 3): −69.2 ± 0.2 mV
gating-modifier effect (voltage-current relationship), Kv7.1 (hKv7.1; 1 µM): stronger shift
Shift in Vhalf activation, Kv7.1 (hKv7.1; 1 µM vs control (ND96)): 6.4 mV
activity (inhibition of current), Kv7.1 (hKv7.1; [3]): 36.2 ± 1.3%
effect on potassium current, Kv7.1 (hKv7.1; [4]): inhibition; also recorded: inhibits
Vhalf activation, Kv7.1 (hKv7.1; 1 µM, control (ND96) 5.8 ± 0.4, mean ± SEM): 12.2 ± 0.6 mV
Shift in Vhalf activation, Nav1.3 (rNav1.3; 1 µM vs control (ND96)): 5.3 mV
Shift in Vhalf inactivation, Nav1.3 (rNav1.3; 1 µM vs control (ND96)): −3.4 mV
inhibition of peak amplitude (INa), Nav1.3 (rNav1.3; [2]): 11.2 ± 1.8%
Vhalf activation, Nav1.3 (rNav1.3; 1 µM, control (ND96) −21.2 ± 0.1, mean ± SEM, n ≥ 3): −15.9 ± 0.1 mV
Vhalf inactivation, Nav1.3 (rNav1.3; 1 µM, control (ND96) −29.9 ± 0.1, mean ± SEM, n ≥ 3): −33.3 ± 0.1 mV
changes in voltage–current relationship, Cav3.1–3.3 activation and inactivation [1]: insignificant changes
effect on activation or inactivation, Nav1.2 (rNav1.2; 1 µM): no significant effect
Shift in Vhalf activation, Nav1.2 (rNav1.2; 1 µM vs control (ND96)): 3.7 mV
Shift in Vhalf inactivation, Nav1.2 (rNav1.2; 1 µM vs control (ND96)): −1.1 mV
reduction of peak amplitude (INa), Nav1.2 (rNav1.2; [2]): 52.8 ± 7.9%
Vhalf activation, Nav1.2 (rNav1.2; 1 µM, control (ND96) −19.2 ± 0.1, mean ± SEM, n ≥ 3): −15.5 ± 0.2 mV
Vhalf inactivation, Nav1.2 (rNav1.2; 1 µM, control (ND96) −33.6 ± 0.4, mean ± SEM, n ≥ 3): −34.7 ± 0.6 mV
effect on activation or inactivation, Nav1.8 (hNav1.8; 1 µM): no significant effect
Shift in Vhalf activation, Nav1.8 (hNav1.8; 1 µM vs control (ND96)): −0.3 mV
Shift in Vhalf inactivation, Nav1.8 (hNav1.8; 1 µM vs control (ND96)): −1.3 mV
reduction of peak amplitude (INa), Nav1.8 (hNav1.8; [2]): 18.5 ± 1.9%
Vhalf activation, Nav1.8 (hNav1.8; 1 µM, control (ND96) −2.3 ± 0.1, mean ± SEM, n ≥ 3): −2.6 ± 0.1 mV
Vhalf inactivation, Nav1.8 (hNav1.8; 1 µM, control (ND96) −35.6 ± 0.4, mean ± SEM, n ≥ 3): −36.9 ± 0.5 mV
Shift in Vhalf activation, Cav3.2 (hCav3.2; [5]): −0.4 mV
Shift in Vhalf inactivation, Cav3.2 (hCav3.2; [5]): 0.5 mV
inhibition, Cav3.2 (hCav3.2; 1 µM, calcium-free ND96 + 10 mM BaCl2, 700 ms depolarization to −20 mV from −90 mV, mean ± SEM, n ≥ 3): 35.1 ± 0.7%
Vhalf activation, Cav3.2 (hCav3.2; 1 µM, control (ND96 Ca2+ free) −31.9 ± 0.1, mean ± SEM, n ≥ 3): −32.3 ± 0.2 mV
Vhalf inactivation, Cav3.2 (hCav3.2; 1 µM, control (ND96 Ca2+ free) −46.6 ± 0.8, mean ± SEM, n ≥ 3): −46.1 ± 0.6 mV
signs of neurotoxicity or changes in behavior (tested animals): None of these three peptides showed signs of neurotoxicity or changes in the behavior
Shift in Vhalf activation, Nav1.1 (rNav1.1; 1 µM vs control (ND96)): 0.1 mV
Shift in Vhalf inactivation, Nav1.1 (rNav1.1; 1 µM vs control (ND96)): −5.8 mV
reduction of peak amplitude (INa) / inhibition, Nav1.1 (rNav1.1; [2]): 31.2 ± 3.8%
Vhalf activation, Nav1.1 (rNav1.1; 1 µM, control (ND96) −24.6 ± 0.1, mean ± SEM, n ≥ 3): −24.5 ± 0.1 mV
Vhalf inactivation, Nav1.1 (rNav1.1; 1 µM, control (ND96) −37.2 ± 0.2, mean ± SEM, n ≥ 3): −43 ± 0.4 mV
gating-modifier effect (voltage-current relationship), KQT1 (KQT1; 1 µM): stronger shift
Shift in Vhalf activation, KQT1 (KQT1; 1 µM vs control (ND96)): 7.9 mV
activity (inhibition of current), KQT1 (KQT1; [3]): 33.4 ± 3.3%
effect on potassium current, KQT1 (KQT1; [4]): inhibition
Vhalf activation, KQT1 (KQT1; 1 µM, control (ND96) 14.6 ± 0.4, mean ± SEM): 22.4 ± 0.5 mV
